Tested on: lashes and adjacent hairs of the eyelids
Assay: Clinical observation of lashes and adjacent hairs in glaucoma patients treated with bimatoprost in one eye
Assay type: in vivo
Excerpt: In the course of treating patients having glaucoma, treatment may only be appropriate in one eye. […] The lash appearance on the lids of the treated eyes would have appeared quite attractive if it represented a bilateral phenomenon. As a result of its asymmetric nature, the long lashes on one side could be construed as disturbing from a cosmetic standpoint. A systemic examination was preformed as a result of the asymmetric phenomenon. It soon became apparent that this altered appearance was not an isolated finding. […] Definite differences could be identified to varying degrees in the lashes and adjacent hairs of all patients who were taking the drug on a unilateral basis for longer than 6 months.
The changes in the lashes were apparent on gross inspection in several patients once attention was focused on the issue. In those with light colored hair and lashes, the differences were only seen easily with the aid of the high magnification and lighting capabilities of the slit lamp biomicroscope. In the course of glaucoma follow-up examination, attention is generally immediately focused on the eye itself. As a result of the high power magnification needed only one eye is seen at a time and the eye is seen at a high enough power that the lashes are not in focus. […]

SMILES: CCNC(=O)CCC/C=C\C[C@@H]1[C@@H](/C=C/[C@@H](O)CCc2ccccc2)[C@H](O)C[C@@H]1O [bimatoprost]
- hair growth in treated versus control areas (conclusion from multiple parameters of hair appearance in many subjects): stimulated
- lashes in the treated eye compared with the non-treated eye (glaucoma patient treated with bimatoprost in only one eye): longer, thicker, and fuller

Reference: patent US7737140B2, “Therapeutic compounds” (Allergan, Inc., priority 2008, dated 2010)
